In one assay the target is T1, EPHB1 (Homo sapiens, UniProt P54762).
T1 construct: purchased Carna Biosciences
T1 sequence (P54762 18-984): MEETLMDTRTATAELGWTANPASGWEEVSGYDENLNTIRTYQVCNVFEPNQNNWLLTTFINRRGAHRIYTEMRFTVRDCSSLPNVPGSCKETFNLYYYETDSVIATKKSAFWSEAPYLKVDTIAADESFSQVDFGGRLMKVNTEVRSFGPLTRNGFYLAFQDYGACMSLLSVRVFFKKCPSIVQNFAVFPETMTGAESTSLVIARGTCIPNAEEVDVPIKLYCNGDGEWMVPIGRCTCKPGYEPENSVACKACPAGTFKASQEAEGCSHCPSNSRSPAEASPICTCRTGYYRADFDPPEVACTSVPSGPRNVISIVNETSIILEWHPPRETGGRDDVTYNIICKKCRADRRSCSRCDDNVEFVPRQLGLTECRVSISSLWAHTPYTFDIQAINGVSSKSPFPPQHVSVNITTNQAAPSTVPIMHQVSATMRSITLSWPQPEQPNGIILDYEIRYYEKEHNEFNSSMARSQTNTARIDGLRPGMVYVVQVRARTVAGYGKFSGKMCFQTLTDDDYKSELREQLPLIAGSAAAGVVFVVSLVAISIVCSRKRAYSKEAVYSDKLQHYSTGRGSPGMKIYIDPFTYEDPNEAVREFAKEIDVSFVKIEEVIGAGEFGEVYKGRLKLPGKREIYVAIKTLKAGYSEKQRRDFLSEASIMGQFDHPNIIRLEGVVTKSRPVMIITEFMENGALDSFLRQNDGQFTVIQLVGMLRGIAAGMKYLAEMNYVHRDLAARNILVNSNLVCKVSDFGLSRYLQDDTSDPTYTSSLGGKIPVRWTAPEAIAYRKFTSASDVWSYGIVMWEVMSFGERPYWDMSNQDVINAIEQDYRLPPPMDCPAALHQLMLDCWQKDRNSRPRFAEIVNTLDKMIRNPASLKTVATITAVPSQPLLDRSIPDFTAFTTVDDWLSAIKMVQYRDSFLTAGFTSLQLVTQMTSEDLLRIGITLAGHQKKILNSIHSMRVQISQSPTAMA
Kind of assay: Kinase panel profiling at 1 µmol/L (mobility shift assay, Carna). The assay is classed as biochemical. Particulars: 1 µmol/L of BTK inhibitor.

For the next assay, the target named is T2, EPHB2 (Homo sapiens, UniProt P29323).
T2 construct: purchased Carna Biosciences
T2 sequence (P29323 19-1055): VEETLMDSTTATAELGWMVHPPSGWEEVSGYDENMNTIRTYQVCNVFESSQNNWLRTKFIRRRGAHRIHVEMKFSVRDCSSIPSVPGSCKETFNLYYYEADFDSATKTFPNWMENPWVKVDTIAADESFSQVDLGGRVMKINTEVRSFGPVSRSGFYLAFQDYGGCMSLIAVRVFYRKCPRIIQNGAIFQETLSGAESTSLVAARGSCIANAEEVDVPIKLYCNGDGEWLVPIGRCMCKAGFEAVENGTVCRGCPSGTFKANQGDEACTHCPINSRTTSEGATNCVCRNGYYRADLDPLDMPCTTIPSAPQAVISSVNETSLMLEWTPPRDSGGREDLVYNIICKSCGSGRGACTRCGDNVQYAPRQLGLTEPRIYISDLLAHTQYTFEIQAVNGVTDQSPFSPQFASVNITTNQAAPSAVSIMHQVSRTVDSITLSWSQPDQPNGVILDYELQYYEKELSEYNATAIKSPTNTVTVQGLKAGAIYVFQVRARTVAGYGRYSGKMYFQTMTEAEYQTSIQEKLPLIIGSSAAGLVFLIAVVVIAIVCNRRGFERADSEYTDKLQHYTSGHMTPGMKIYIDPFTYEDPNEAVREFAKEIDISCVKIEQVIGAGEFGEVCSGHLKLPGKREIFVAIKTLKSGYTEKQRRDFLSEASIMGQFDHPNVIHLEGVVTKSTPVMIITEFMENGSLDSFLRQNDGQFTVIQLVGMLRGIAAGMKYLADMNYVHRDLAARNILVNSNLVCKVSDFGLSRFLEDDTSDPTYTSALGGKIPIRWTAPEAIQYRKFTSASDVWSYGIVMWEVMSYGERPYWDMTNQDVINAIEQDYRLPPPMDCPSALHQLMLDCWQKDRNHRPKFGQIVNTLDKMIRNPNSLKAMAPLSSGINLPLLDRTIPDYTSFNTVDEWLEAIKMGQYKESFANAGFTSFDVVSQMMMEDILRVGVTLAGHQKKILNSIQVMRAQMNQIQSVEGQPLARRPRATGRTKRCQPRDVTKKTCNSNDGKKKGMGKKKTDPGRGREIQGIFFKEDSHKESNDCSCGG
The description is as above. The assay is classed as biochemical. Particulars: 1 µmol/L of BTK inhibitor.

Another assay addresses T3, AMPKα1/β1/γ1 (Homo sapiens, UniProt Q13131).
T3 construct: purchased Carna Biosciences
The assay is described as above. The assay is classed as biochemical. Particulars: 1 µmol/L of BTK inhibitor.

For another assay, the target named is T4, TEC (Homo sapiens, UniProt P42680).
T4 sequence (P42680 1-631): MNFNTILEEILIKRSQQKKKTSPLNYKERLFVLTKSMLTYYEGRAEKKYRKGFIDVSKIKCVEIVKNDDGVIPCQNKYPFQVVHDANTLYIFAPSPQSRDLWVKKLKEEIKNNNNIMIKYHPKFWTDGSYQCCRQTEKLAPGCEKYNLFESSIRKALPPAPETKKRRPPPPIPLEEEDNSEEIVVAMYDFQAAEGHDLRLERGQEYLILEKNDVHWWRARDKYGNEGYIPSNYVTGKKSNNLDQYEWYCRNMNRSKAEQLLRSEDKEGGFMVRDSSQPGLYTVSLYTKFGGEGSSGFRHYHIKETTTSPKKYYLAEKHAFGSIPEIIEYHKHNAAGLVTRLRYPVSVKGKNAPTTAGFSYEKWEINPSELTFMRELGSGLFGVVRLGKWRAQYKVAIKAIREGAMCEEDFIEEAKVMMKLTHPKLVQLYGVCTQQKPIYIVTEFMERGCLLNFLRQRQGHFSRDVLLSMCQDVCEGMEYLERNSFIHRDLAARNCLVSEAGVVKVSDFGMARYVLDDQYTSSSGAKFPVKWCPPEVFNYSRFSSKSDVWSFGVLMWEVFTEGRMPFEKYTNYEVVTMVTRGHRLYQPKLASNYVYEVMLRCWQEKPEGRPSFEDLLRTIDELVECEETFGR
Kind of assay: Kinase enzyme activity assay (mobility shift assay, Carna). Particulars: for Percentage inhibition of kinase enzyme activity: TEC, 1 µmol/L of BTK inhibitor.

A further assay addresses T5, CLK1 (Homo sapiens, UniProt P49759).
T5 construct: purchased Carna Biosciences
Description: Kinase panel profiling at 1 µmol/L (mobility shift assay, Carna). Particulars: 1 µmol/L of BTK inhibitor. The assay is classed as biochemical.

A further assay has as its target T6, RON (Homo sapiens, UniProt Q04912).
T6 construct: purchased Carna Biosciences
The assay is described as above. Particulars: 1 µmol/L of BTK inhibitor. The assay is classed as biochemical.

In the next assay the target is T7, LYNa (Homo sapiens, UniProt P07948).
T7 construct: purchased Carna Biosciences
Described as above. The assay is classed as biochemical. Particulars: 1 µmol/L of BTK inhibitor.

For another assay, the target named is T8, CLK3 (Homo sapiens, UniProt P49761).
T8 construct: purchased Carna Biosciences
Described as above. The assay is classed as biochemical. Particulars: 1 µmol/L of BTK inhibitor.

T5 sequence (P49759 whole entry): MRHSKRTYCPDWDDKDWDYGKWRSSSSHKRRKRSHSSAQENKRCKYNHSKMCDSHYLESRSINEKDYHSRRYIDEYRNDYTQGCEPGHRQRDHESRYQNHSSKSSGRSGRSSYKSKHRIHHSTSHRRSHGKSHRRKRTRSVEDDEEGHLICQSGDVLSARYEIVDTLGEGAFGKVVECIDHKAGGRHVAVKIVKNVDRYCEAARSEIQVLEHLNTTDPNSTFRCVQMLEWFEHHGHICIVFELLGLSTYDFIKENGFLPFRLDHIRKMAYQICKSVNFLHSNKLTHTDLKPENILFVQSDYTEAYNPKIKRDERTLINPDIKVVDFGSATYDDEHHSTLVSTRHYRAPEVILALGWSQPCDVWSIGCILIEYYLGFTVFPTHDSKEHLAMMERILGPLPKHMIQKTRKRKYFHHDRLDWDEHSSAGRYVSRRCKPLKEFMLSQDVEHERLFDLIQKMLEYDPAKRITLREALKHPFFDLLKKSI
T7 sequence (P07948 whole entry): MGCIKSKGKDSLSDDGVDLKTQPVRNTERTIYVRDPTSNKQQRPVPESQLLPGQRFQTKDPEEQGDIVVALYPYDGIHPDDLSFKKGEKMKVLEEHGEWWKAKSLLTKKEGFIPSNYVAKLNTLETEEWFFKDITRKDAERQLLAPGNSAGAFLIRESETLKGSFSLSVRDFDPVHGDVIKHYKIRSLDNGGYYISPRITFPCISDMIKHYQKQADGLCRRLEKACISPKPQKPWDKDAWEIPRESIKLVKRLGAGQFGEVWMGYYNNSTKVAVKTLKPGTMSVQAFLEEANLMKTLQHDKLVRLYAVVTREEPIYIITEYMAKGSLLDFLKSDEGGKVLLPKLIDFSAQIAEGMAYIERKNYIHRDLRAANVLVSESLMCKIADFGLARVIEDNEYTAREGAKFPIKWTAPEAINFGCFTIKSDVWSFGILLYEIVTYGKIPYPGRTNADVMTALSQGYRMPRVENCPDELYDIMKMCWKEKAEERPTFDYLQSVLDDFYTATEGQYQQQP
T3 sequence (Q13131 whole entry): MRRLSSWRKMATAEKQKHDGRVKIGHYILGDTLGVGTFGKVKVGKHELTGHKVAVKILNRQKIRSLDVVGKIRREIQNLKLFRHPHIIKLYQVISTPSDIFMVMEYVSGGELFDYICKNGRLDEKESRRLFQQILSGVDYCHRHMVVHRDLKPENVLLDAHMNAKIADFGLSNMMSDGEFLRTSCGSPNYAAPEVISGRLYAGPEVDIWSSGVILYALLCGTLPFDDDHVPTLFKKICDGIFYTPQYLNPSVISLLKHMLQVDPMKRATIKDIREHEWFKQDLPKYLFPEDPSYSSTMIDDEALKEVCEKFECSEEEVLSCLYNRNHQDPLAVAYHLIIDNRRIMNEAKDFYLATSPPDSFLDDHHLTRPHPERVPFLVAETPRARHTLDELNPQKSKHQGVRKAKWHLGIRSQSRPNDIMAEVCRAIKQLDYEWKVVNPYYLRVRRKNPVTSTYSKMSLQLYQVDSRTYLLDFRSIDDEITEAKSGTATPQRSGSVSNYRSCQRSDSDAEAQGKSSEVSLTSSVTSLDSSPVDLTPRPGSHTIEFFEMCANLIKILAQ
T3 sequence (Q9Y478 whole entry partner): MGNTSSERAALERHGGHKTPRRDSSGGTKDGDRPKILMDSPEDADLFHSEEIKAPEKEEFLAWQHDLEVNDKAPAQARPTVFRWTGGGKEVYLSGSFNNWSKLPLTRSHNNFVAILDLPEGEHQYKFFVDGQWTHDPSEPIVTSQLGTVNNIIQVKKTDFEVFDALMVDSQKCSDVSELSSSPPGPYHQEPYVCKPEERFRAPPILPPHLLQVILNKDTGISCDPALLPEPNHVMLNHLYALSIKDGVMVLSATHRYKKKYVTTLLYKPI
T3 sequence (P54619 whole entry partner): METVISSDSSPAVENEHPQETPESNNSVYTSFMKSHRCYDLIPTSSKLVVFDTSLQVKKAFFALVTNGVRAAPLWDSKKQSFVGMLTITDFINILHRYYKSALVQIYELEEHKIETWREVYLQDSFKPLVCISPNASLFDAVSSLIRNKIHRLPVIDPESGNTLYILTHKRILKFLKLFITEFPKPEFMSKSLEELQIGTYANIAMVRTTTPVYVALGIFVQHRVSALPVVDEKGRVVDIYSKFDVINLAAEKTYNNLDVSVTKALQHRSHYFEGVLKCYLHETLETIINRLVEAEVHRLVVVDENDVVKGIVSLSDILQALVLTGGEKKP
T6 sequence (Q04912 25-1400): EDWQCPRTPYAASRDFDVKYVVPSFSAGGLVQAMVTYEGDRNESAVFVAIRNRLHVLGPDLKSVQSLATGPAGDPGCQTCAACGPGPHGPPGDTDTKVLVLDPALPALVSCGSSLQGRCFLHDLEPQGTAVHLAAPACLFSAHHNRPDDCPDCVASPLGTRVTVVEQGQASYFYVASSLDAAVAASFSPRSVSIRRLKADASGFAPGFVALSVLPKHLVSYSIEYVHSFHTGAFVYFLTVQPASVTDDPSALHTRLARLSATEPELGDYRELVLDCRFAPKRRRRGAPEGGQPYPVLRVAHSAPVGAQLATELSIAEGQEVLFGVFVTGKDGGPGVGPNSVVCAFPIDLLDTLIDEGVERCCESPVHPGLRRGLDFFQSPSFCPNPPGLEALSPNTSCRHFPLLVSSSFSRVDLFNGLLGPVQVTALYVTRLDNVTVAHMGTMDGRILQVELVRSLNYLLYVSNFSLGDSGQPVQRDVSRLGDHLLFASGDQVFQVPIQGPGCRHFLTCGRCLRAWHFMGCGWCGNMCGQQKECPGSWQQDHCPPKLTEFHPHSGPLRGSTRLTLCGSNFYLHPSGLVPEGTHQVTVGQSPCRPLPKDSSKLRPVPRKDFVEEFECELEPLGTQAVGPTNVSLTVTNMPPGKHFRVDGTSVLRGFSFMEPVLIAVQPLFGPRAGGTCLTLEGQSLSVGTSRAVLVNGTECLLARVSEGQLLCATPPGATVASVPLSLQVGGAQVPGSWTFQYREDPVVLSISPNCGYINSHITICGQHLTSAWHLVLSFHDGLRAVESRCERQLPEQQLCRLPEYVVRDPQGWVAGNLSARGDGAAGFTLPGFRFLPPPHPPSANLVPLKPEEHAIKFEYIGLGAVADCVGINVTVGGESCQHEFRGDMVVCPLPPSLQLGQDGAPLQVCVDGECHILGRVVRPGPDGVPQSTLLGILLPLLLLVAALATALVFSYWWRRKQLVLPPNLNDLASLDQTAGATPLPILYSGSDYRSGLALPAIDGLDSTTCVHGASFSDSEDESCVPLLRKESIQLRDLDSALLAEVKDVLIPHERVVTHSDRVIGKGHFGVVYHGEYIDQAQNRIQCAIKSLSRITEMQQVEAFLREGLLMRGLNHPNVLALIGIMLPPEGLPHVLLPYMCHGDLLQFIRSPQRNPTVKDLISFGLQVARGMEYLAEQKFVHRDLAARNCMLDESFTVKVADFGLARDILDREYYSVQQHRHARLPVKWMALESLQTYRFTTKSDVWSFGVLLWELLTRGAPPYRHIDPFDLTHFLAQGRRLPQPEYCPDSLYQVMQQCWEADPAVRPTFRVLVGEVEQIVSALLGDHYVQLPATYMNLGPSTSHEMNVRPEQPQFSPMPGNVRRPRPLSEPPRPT
T8 sequence (P49761 whole entry): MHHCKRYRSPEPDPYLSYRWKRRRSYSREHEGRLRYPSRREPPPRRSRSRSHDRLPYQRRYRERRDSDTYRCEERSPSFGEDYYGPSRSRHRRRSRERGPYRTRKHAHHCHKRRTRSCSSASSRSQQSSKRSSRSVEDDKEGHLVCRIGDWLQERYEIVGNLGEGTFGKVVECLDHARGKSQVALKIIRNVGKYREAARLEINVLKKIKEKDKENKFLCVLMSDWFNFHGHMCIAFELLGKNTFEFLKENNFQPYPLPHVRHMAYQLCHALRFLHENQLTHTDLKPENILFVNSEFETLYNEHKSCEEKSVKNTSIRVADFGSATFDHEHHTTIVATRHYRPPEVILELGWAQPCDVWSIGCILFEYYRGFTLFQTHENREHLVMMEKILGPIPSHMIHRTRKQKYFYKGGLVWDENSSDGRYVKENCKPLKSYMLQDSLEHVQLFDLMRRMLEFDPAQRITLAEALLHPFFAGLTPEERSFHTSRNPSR

`C=CC(=O)N1CCC([C@@H]2CCNc3c(C(N)=O)c(-c4ccc(Oc5ccccc5)cc4)nn32)CC1` [zanubrutinib]: the entries for the “Percentage inhibition of kinase enzyme activity” value (from here on “Percentage inhibition”) at EPHB1 and on EPHB2 were -1.07% and -1.32%, respectively.

For `CC#CC(=O)N1CCC[C@H]1c1nc(-c2ccc(C(=O)Nc3ccccn3)cc2)c2c(N)nccn12` [acalabrutinib], the “Percentage inhibition” value on AMPKα1/β1/γ1 is reported as -4.92%; on TEC it was 95.77%; at EPHB1 it was -1.40%; at CLK1, -8.11%; at RON it was 7.68%; on EPHB2, -0.11%. For the same compound, the “Percentage inhibition” value is reported as 1.93% at LYNa and -14.91% on CLK3.

For `COc1ccc(F)cc1C(=O)NCc1ccc(-c2nn([C@@H](C)C(F)(F)F)c(N)c2C(N)=O)cc1` [pirtobrutinib], the “Percentage inhibition” value on AMPKα1/β1/γ1 is recorded as -7.93%; on TEC, 87.84%; on EPHB1, 2.51%; at CLK1, -2.61%; at RON, 6.55%; on EPHB2 it was 6.14%. Besides, the figures for the “Percentage inhibition” value at LYNa and on CLK3 were 46.22% and 14.87%, respectively. The inhibition (as a rule, the share of the control response that was lost under treatment) at 1 µM at TEC (read-out: Inhibition of TEC) is more than 75%.

For the compound `O=C(c1ccc(Oc2ccccc2)cc1Cl)c1c[nH]c2ncnc(N[C@@H]3CC[C@@H](CO)OC3)c12` [nemtabrutinib], the “Percentage inhibition” value at AMPKα1/β1/γ1 is reported as 12.21%; on TEC it was 98.70%; on EPHB1, 63.64%; on CLK1, 0.63%; on RON, 33.63%; at EPHB2, 48.93%. Also, the “Percentage inhibition” value on LYNa is given as 100.76%; at CLK3, -2.19%. For the same compound, the IC50 (as a rule, the concentration at which inhibition is half-maximal) at TEC is 0.75 nM.

As for `C=CC(=O)N1CCC[C@@H](n2nc(-c3ccc(Oc4ccccc4)cc3)c3c(N)ncnc32)C1` [ibrutinib], the “Percentage inhibition” value at TEC is on record as 91.92%; on EPHB1 it was 11.81%; on RON it was 6.98%; on EPHB2 it was 27.83%; on LYNa it was 98.69%.
